Source: PMC8292455, “Kinetic characterisation and inhibitor sensitivity of Candida albicans and Candida auris recombinant AOX expressed in a self-assembled proteoliposome system” (Scientific Reports, 2021)

Tests used:
C. auris AOX [1] = molecular target: T1, C. auris AOX (Candidozyma auris, UniProt A0A0L0NPQ3); experiment: NADH oxidation at […] nm in NDH-2/AOX proteoliposomes, dose-response; type: biochemical
T1 construct: twin-strep tag (pET15b.TS, pTS.CaAOX) kept; from E. coli FN102; in self-assembled proteoliposomes
T1 sequence (A0A0L0NPQ3 25-333 limits assumed): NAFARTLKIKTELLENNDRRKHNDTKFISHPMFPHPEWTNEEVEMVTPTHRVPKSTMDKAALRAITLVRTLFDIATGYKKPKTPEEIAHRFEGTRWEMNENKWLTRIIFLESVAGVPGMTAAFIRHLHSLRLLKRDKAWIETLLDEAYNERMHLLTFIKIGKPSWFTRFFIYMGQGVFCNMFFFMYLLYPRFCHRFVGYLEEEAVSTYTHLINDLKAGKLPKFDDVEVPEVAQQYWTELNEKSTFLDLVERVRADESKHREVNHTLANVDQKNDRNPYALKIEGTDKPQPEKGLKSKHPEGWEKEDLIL

C. albicans AOX2 [2] = molecular target: T2, C. albicans AOX2 (Candida albicans, UniProt Q9UV71); experiment: as above; type: biochemical
T2 construct: twin-strep tag (pET15b.TS, pTS.CalbAOX2) kept; from E. coli FN102; in self-assembled proteoliposomes
T2 sequence (Q9UV71 27-365): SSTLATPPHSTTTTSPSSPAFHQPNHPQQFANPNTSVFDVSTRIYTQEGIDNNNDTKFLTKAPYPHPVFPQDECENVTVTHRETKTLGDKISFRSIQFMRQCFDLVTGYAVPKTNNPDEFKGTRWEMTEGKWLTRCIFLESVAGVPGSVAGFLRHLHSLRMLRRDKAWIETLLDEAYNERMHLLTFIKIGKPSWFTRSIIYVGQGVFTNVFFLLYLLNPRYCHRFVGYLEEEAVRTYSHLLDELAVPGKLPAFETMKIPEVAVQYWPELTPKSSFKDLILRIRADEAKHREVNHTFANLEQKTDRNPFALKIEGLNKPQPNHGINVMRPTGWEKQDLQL

NDH-2 = molecular target: T3, NDH-2 (Caldalkalibacillus thermarum, UniProt F5L3B8); experiment: NADH oxidation at […] nm; type: biochemical; conditions: 50 mM MOPS pH 7.5, 250 uM Q1, 300 uM NADH
T3 construct: gene CathTA2_0279; His-tagged, from E. coli C41 (plasmid pTRCndh2); predicted mass 44 kDa
T3 sequence (F5L3B8 1-399): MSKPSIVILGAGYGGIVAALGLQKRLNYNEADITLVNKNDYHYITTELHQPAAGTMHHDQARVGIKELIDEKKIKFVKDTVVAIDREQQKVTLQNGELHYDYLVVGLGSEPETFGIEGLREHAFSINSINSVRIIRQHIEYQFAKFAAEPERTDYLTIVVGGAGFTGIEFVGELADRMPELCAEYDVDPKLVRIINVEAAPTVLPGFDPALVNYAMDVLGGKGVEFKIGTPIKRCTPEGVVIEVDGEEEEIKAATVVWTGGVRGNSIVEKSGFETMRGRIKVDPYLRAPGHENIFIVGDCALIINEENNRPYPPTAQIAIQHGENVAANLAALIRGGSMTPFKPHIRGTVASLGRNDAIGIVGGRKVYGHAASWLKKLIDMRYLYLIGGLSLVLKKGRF

C. auris AOX [3] = molecular target: T1, C. auris AOX; experiment: oxygen consumption of NDH-2/AOX proteoliposomes (Oroboros oxygraph), dose-response; type: biochemical
C. albicans AOX2 [4] = molecular target: T2, C. albicans AOX2; experiment: as above; type: biochemical
[5] = tested on: COc1c(O)c(C)c(C/C=C(\C)CC/C=C(\C)CC/C=C(\C)CC/C=C(\C)CC/C=C(\C)CC/C=C(\C)CC/C=C(\C)CC/C=C(\C)CC/C=C(\C)CCC=C(C)C)c(O)c1OC; experiment: purified protein; conditions: 65 mM MOPS pH 7.5, 300 uM NADH, excess NDH-2, Q10 concentration in the lipid phase
purified protein = substrate: COc1c(O)c(C)c(C/C=C(\C)CC/C=C(\C)CC/C=C(\C)CC/C=C(\C)CC/C=C(\C)CC/C=C(\C)CC/C=C(\C)CC/C=C(\C)CC/C=C(\C)CCC=C(C)C)c(O)c1OC; experiment: purified protein; type: biochemical, Candida albicans; conditions: 65 mM MOPS pH 7.5, 300 uM NADH, excess NDH-2, Q10 concentration in the lipid phase

Molecule `C/C(=C\Cc1c(O)c(Cl)c(C)c(C=O)c1O)CC/C=C(\C)[C@@H]1CC(=O)C(C)(C)O1` [AF, Ascofuranone] has an IC50 (C. auris AOX [1]) of 0.129 ± 0.018 µM and an IC50 (C. albicans AOX2 [2]) of 0.213 ± 0.027 µM.

With `CC(C)=CCC/C(C)=C/Cc1c(O)c(Cl)c(C)c(C=O)c1O` [CB, colletochlorin B] the IC50 (C. auris AOX [1]) was 0.055 ± 0.01 µM and the IC50 (C. albicans AOX2 [2]) was 0.053 ± 0.016 µM.

`NC(=O)C1=CN([C@@H]2O[C@H](COP(=O)(O)OP(=O)(O)OC[C@H]3O[C@@H](n4cnc5c(N)ncnc54)[C@H](O)[C@@H]3O)[C@@H](O)[C@H]2O)C=CC1` [NADH] was tested, and the “NADH oxidation at 340 nm” value (NDH-2) was “measured spectrophotometrically by measuring the oxidation of NADH at A340 nm”.

Molecule `O=C(NO)c1ccccc1O` [SHAM] has an IC50 (C. auris AOX [3]) of 5000 ± 600 µM and an IC50 (C. albicans AOX2 [4]) of 3500 ± 700 µM.

C. auris AOX (Candidozyma auris) gave a Km [5] of 7.3 ± 1.4 mM and a kcat [5] of 108 ± 3 s⁻¹.

B1: C. albicans AOX2 (Candida albicans) (protein)
chain: SSTLATPPHSTTTTSPSSPAFHQPNHPQQFANPNTSVFDVSTRIYTQEGIDNNNDTKFLTKAPYPHPVFPQDECENVTVTHRETKTLGDKISFRSIQFMRQCFDLVTGYAVPKTNNPDEFKGTRWEMTEGKWLTRCIFLESVAGVPGSVAGFLRHLHSLRMLRRDKAWIETLLDEAYNERMHLLTFIKIGKPSWFTRSIIYVGQGVFTNVFFLLYLLNPRYCHRFVGYLEEEAVRTYSHLLDELAVPGKLPAFETMKIPEVAVQYWPELTPKSSFKDLILRIRADEAKHREVNHTFANLEQKTDRNPFALKIEGLNKPQPNHGINVMRPTGWEKQDLQL
notes: twin-strep tag (pET15b.TS, pTS.CalbAOX2) kept; from E. coli FN102; in self-assembled proteoliposomes
For B1, the Km (purified protein) was 6.3 ± 1.3 mM and the kcat (purified protein) was 404 ± 51 s⁻¹.
